Experimental data published in patent publication US20250263405A1, “HISTONE DEACETYLASE 6 INHIBITOR COMPOUNDS AND USES THEREOF” (VALO HEALTH, INC., priority 2021, published 2025).

These compounds were tested against HDAC6 (Homo sapiens (Human), UniProt Q9UBN7) (assay: HDAC6 TR-FRET displacement assay). Settings: displacement of fluorescein labeled tracer from HDAC6; 2 nM HDAC6, 1 nM tracer, 0.5 nM Tb-anti-GST antibody; 30 min pre-incubation, 6 hours at 25° C.
Format: binding
From the text: HDAC6 and Tb-anti-GST antibody were purchased from Signal Chem (cat #PC124) and Cisbio (cat #61GSTTAH), respectively. HEPES, pH 7.5 was purchased from Teknova (Cat #H1575). All other buffer components, NaCl (cat #S5150), KCl (cat #60121), Triton X-100 (cat #T9284), GSH (cat #G4251), BGG (cat #G5009), and BSA (cat #A2153) were purchased from SIGMA.
Displacement of fluorescein labeled tracer 2-(6-hydroxy-3-oxo-3H-xanthen-9-yl)-5-({[5-(4-{[7-(hydroxycarbamoyl)-2H,3H,4H,5H-thieno[2,3-f][1,4]oxazepine-4-carbonyl]amino}phenoxy)pentyl]carbamothioyl}amino)benzoic acid from HDAC6 was measured in vitro using a TR-FRET assay. The assays were performed in 1536-well plates in a total volume of 6 μL in assay buffer consisting of 50 mM HEPES pH 7.5, 50 mM NaCl, 50 mM KCl, 0.01% Triton X-100, 0.5 mM GSH, 0.03% BGG, 0.01% BSA.
For concentration response curves (IC50 determination), Compounds were serially diluted 3-fold from 2 mM highest concentration to generate a 10-point concentration gradient. To perform the assay, 30 nL of compound gradient solutions were transferred to the assay plate using the ECHO acoustic dispenser to achieve a final concentration range of 10 μM to 0.000508 uM in 6 μL reaction. 3 μL of HDAC6 in assay buffer were added to the assay plates and pre-incubate at room temp. for 30 mins. After pre-incubation, 3 μL of the tracer and TB-anti-GST antibody mix were added to the assay plates. The final concentrations of HDAC6, tracer, and TB-anti-GST antibody for each assay are 2 nM, 1 nM, and 0.5 nM, respectively. Binding reactions were equilibrated at 25° C. for an additional 6 hours, then read in endpoint mode on the BMG PheraStar (BMG labtech) equipped with a 337-520-490 optical module. The ratio of the 520/490 nm emission was calculated to determine the relative amounts of HDAC6 and tracer complex residue in each well.
The percent inhibition of HDAC6 (IC50) was calculated according to the following equation.
As set forth in Table 1, “A” indicates an HDAC6 IC50 value of less than 200 nM; “B” indicates an HDAC6 IC50 value of greater than or equal to 200 nM and less than 500 nM; and “C” indicates an HDAC6 IC50 value of greater than or equal to 500 nM and less than 5 μM.

Chain of HDAC6 (Q9UBN7 whole entry): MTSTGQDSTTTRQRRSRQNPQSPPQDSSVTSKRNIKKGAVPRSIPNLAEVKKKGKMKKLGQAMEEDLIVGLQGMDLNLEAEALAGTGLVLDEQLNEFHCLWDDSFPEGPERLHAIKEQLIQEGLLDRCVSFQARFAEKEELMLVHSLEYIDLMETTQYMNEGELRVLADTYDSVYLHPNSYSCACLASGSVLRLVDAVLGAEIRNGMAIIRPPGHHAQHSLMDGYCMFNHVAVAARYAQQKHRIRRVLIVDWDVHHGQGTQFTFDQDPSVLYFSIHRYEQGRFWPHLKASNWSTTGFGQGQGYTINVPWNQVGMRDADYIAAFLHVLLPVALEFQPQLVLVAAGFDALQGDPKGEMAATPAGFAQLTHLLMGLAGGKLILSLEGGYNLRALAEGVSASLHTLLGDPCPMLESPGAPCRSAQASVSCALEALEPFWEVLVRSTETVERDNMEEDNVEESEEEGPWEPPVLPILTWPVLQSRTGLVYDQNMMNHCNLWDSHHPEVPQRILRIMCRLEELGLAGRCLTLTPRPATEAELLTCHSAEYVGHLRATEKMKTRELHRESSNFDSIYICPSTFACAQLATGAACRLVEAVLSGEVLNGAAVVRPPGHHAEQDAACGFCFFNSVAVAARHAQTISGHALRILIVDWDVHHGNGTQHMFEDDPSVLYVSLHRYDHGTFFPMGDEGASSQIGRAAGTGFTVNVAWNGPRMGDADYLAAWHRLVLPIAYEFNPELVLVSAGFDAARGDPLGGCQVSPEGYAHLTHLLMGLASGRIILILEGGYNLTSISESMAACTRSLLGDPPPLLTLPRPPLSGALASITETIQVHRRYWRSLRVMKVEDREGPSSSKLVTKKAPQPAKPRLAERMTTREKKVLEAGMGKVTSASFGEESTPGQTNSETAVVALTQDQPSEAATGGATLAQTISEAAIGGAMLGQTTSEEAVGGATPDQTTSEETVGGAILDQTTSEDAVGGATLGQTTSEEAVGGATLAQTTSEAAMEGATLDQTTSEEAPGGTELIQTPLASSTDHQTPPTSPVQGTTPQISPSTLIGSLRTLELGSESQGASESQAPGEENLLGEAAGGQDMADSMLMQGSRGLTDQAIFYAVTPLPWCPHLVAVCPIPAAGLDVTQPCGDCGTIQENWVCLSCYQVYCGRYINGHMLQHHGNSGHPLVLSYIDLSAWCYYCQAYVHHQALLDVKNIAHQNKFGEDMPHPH

**Q.** For C[C@H]1COc2cc(-c3noc(C(F)(F)F)n3)ccc2CN1S(C)(=O)=O [Compound 33, (S)-3-methyl-4-(methylsulfonyl)-8-(5-(trifluoromethyl)-1,2,4-oxadiazol-3-yl)-2,3,4,5-tetrahydrobenzo[f][1,4]oxazepine], which IC50 is on record?
**A.** 200 to 500 nM

**Q.** For C[C@H]1COc2cc(-c3noc(C(F)(F)F)n3)ccc2CN1S(=O)(=O)C(C)(C)C [Compound 34, (3S)-3-methyl-4-(2-methylpropane-2-sulfonyl)-8-[5-(trifluoromethyl)-1,2,4-oxadiazol-3-yl]-3,5-dihydro-2H-1,4-benzoxazepine], which IC50 is on record?
**A.** 200 to 500 nM

**Q.** Which IC50 does the source give for C[C@H]1COc2cc(-c3noc(C(F)(F)F)n3)ccc2CN1C [Compound 35, (S)-3,4-dimethyl-8-(5-(trifluoromethyl)-1,2,4-oxadiazol-3-yl)-2,3,4,5-tetrahydrobenzo[f][1,4]oxazepine] here?
**A.** 200 to 500 nM

**Q.** C[C@H]1COc2cc(-c3noc(C(F)(F)F)n3)ccc2CN1CC(F)(F)F [Compound 36, (S)-3-methyl-4-(2,2,2-trifluoroethyl)-8-(5-(trifluoromethyl)-1,2,4-oxadiazol-3-yl)-2,3,4,5-tetrahydrobenzo[f][1,4]oxazepine] was tested. Which IC50 did it give?
**A.** 500 to 5000 nM

**Q.** CC1(C(=O)N2CCOc3cc(-c4noc(C(F)(F)F)n4)cc(F)c3C2)COC1 [Compound 37, 6-fluoro-4-[(3-methyloxetan-3-yl)carbonyl]-8-[5-(trifluoromethyl)-1,2,4-oxadiazol-3-yl]-3,5-dihydro-2H-1,4-benzoxazepine] was tested. Which IC50 did it give?
**A.** < 200 nM

**Q.** For CC(C)C(=O)N1Cc2c(F)cc(-c3noc(C(F)(F)F)n3)cc2OC[C@@H]1C [Compound 38, 1-[(3S)-6-fluoro-3-methyl-8-[5-(trifluoromethyl)-1,2,4-oxadiazol-3-yl]-3,5-dihydro-2H-1,4-benzoxazepin-4-yl]-2-methylpropan-1-one], which IC50 is on record?
**A.** < 200 nM

**Q.** With C[C@H]1COc2cc(-c3noc(C(F)(F)F)n3)cc(F)c2CN1C(=O)C1CCOCC1 [Compound 39, (3S)-6-fluoro-3-methyl-4-[(oxan-4-yl)carbonyl]-8-[5-(trifluoromethyl)-1,2,4-oxadiazol-3-yl]-3,5-dihydro-2H-1,4-benzoxazepine] as the compound, how does the IC50 read?
**A.** < 200 nM

**Q.** Which IC50 does the source give for C[C@H]1COc2cc(-c3noc(C(F)(F)F)n3)cc(F)c2CN1C(=O)CO [Compound 40, 1-[(3S)-6-fluoro-3-methyl-8-[5-(trifluoromethyl)-1,2,4-oxadiazol-3-yl]-3,5-dihydro-2H-1,4-benzoxazepin-4-yl]-2-hydroxyethanone] here?
**A.** 200 to 500 nM

**Q.** Which IC50 does the source give for COCC(=O)N1Cc2c(F)cc(-c3noc(C(F)(F)F)n3)cc2OC[C@@H]1C [Compound 41, 1-[(3S)-6-fluoro-3-methyl-8-[5-(trifluoromethyl)-1,2,4-oxadiazol-3-yl]-3,5-dihydro-2H-1,4-benzoxazepin-4-yl]-2-methoxyethanone] here?
**A.** < 200 nM

**Q.** C[C@H]1COc2cc(-c3noc(C(F)(F)F)n3)cc(F)c2CN1C(=O)CCN(C)C [Compound 42, (S)-3-(dimethylamino)-1-(6-fluoro-3-methyl-8-(5-(trifluoromethyl)-1,2,4-oxadiazol-3-yl)-2,3-dihydrobenzo[f][1,4]oxazepin-4(5H)-yl)propan-1-one] was tested. Which IC50 did it give?
**A.** 200 to 500 nM

**Q.** How did the IC50 turn out when C[C@H]1COc2cc(-c3noc(C(F)(F)F)n3)cc(F)c2CN1C(=O)CN(C)C [Compound 43, (S)-2-(dimethylamino)-1-(6-fluoro-3-methyl-8-(5-(trifluoromethyl)-1,2,4-oxadiazol-3-yl)-2,3-dihydrobenzo[f][1,4]oxazepin-4(5H)-yl)ethan-1-one] was run?
**A.** 200 to 500 nM

**Q.** With C[C@H]1COc2cc(-c3noc(C(F)(F)F)n3)cc(F)c2CN1C(=O)c1ccccc1 [Compound 44, (3S)-4-benzoyl-6-fluoro-3-methyl-8-[5-(trifluoromethyl)-1,2,4-oxadiazol-3-yl]-3,5-dihydro-2H-1,4-benzoxazepine] as the compound, how does the IC50 read?
**A.** 200 to 500 nM

**Q.** For C[C@H]1COc2cc(-c3noc(C(F)(F)F)n3)cc(F)c2CN1C(=O)Cc1ccncc1 [Compound 46, 1-[(3S)-6-fluoro-3-methyl-8-[5-(trifluoromethyl)-1,2,4-oxadiazol-3-yl]-3,5-dihydro-2H-1,4-benzoxazepin-4-yl]-2-(pyridin-4-yl) ethenone], which IC50 is on record?
**A.** < 200 nM

**Q.** For CC1(C(=O)N2Cc3ccc(-c4noc(C(F)(F)F)n4)cc3OCC23CC3)COC1 [Compound 47, (3-methyloxetan-3-yl)(8-(5-(trifluoromethyl)-1,2,4-oxadiazol-3-yl)-2H-spiro[benzo[f][1,4]oxazepine-3,1′-cyclopropan]-4(5H)-yl)methanone], which IC50 is on record?
**A.** 200 to 500 nM

**Q.** Which IC50 does the source give for CC(=O)N1CCC(C)(C(=O)N2Cc3c(F)cc(-c4noc(C(F)(F)F)n4)cc3OC[C@@H]2C)CC1 [Compound 48, (S)-1-(4-(6-fluoro-3-methyl-8-(5-(trifluoromethyl)-1,2,4-oxadiazol-3-yl)-2,3,4,5-tetrahydrobenzo[f][1,4]oxazepine-4-carbonyl)-4-methylpiperidin-1-yl)ethan-1-one] here?
**A.** 200 to 500 nM

**Q.** How did the IC50 turn out when C[C@H]1COc2cc(-c3noc(C(F)(F)F)n3)cc(F)c2CN1C(=O)c1ccncc1 [Compound 49, (3S)-6-fluoro-3-methyl-4-[(pyridin-4-yl)carbonyl]-8-[5-(trifluoromethyl)-1,2,4-oxadiazol-3-yl]-3,5-dihydro-2H-1,4-benzoxazepine] was run?
**A.** 200 to 500 nM

**Q.** For CC1Oc2cc(-c3noc(C(F)(F)F)n3)ccc2CNC1=O (centres unmarked) [Compound 50, 2-methyl-8-[5-(trifluoromethyl)-1,2,4-oxadiazol-3-yl]-4,5-dihydro-2H-1,4-benzoxazepin-3-one], which IC50 is on record?
**A.** < 200 nM

**Q.** With FC(F)(F)c1nc(-c2ccc3c(c2)OCCN(c2nc4ccccc4[nH]2)C3)no1 [Compound 51, 4-(1H-benzo[d]imidazol-2-yl)-8-(5-(trifluoromethyl)-1,2,4-oxadiazol-3-yl)-2,3,4,5-tetrahydrobenzo[f][1,4]oxazepine] as the compound, how does the IC50 read?
**A.** < 200 nM

**Q.** How did the IC50 turn out when CC1(C(=O)N2CCOc3cc(-c4noc(C(F)(F)F)n4)ccc3C2)COC1 [Compound 52, 4-[(3-methyloxetan-3-yl)carbonyl]-8-[5-(trifluoromethyl)-1,2,4-oxadiazol-3-yl]-3,5-dihydro-2H-1,4-benzoxazepine] was run?
**A.** 200 to 500 nM

**Q.** Which IC50 does the source give for CC(C)C(=O)N1CCOc2cc(-c3noc(C(F)(F)F)n3)ccc2C1 [Compound 53, 2-methyl-1-{8-[5-(trifluoromethyl)-1,2,4-oxadiazol-3-yl]-3,5-dihydro-2H-1,4-benzoxazepin-4-yl}propan-1-one] here?
**A.** 200 to 500 nM

**Q.** O=C(C1CCOCC1)N1CCOc2cc(-c3noc(C(F)(F)F)n3)ccc2C1 [Compound 54, 4-[(oxan-4-yl)carbonyl]-8-[5-(trifluoromethyl)-1,2,4-oxadiazol-3-yl]-3,5-dihydro-2H-1,4-benzoxazepine] was tested. Which IC50 did it give?
**A.** 200 to 500 nM

**Q.** Which IC50 does the source give for CCN1CCC(C)(C(=O)N2Cc3c(F)cc(-c4noc(C(F)(F)F)n4)cc3OC[C@@H]2C)CC1 [Compound 55, (S)-(1-ethyl-4-methylpiperidin-4-yl)(6-fluoro-3-methyl-8-(5-(trifluoromethyl)-1,2,4-oxadiazol-3-yl)-2,3-dihydrobenzo[f][1,4]oxazepin-4(5H)-yl)methanone] here?
**A.** 200 to 500 nM

**Q.** CC(C)N1CCC(C)(C(=O)N2Cc3c(F)cc(-c4noc(C(F)(F)F)n4)cc3OC[C@@H]2C)CC1 [Compound 56, (S)-(6-fluoro-3-methyl-8-(5-(trifluoromethyl)-1,2,4-oxadiazol-3-yl)-2,3-dihydrobenzo[f][1,4]oxazepin-4(5H)-yl)(1-isopropyl-4-methylpiperidin-4-yl)methanone] was tested. Which IC50 did it give?
**A.** < 200 nM
